Experimental data reported in PubChem BioAssay AID256 (DTP/NCI, 2004).
“And” between values parts separate entries of the source, which are not always exact repeats. Equal entries are not always repeated. Toxic doses and inconclusive results are not listed. The calls were made as follows: active = survival T/C of 150% or more; inactive = T/C below 125% in these data. Non-standard residues stand in square brackets, D forms with d. Residues, ends and D or L forms follow the SMILES beside them. Deg = CCC(N)(CC)C(=O)O

Test system: CD2F1 mice, L1210 leukemia ip, survival T/C
Test: NCI In Vivo Anticancer Drug Screen. Data for tumor model L1210 Leukemia (intraperitoneal) in CD2F1 (CDF1) mice
Details: higher = longer survival
How it was run: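 Read-out first: treated-group measurement over vehicle-control measurement, expressed as a ratio. Animals bore a transplanted tumor line and were dosed with compound or vehicle.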

[1] = endpoint: mean survival time, dose: 75.0 mg/kg/injection, schedule: Q01DX001 (ip), vehicle: other
[2] = endpoint: mean survival time, dose: 150.0 mg/kg/injection, schedule: Q01DX001 (ip), vehicle: other
[3] = endpoint: mean survival time, dose: 100.0 mg/kg/injection, schedule: Q01DX009 (ip), vehicle: saline with Tween-80
[4] = endpoint: mean survival time, dose: 200.0 mg/kg/injection, schedule: Q01DX009 (ip), vehicle: saline with Tween-80
[5] = endpoint: mean survival time, dose: 50.0 mg/kg/injection, schedule: Q01DX009 (ip), vehicle: Klucel (hydroxypropylcellulose) (HPC)
[6] = endpoint: mean survival time, dose: 100.0 mg/kg/injection, schedule: Q01DX009 (ip), vehicle: Klucel (hydroxypropylcellulose) (HPC)
[7] = endpoint: mean survival time, dose: 200.0 mg/kg/injection, schedule: Q01DX009 (ip), vehicle: Klucel (hydroxypropylcellulose) (HPC)
[8] = endpoint: mean survival time, dose: 25.0 mg/kg/injection, schedule: Q01DX009 (ip), vehicle: saline with Tween-80
[9] = endpoint: mean survival time, dose: 50.0 mg/kg/injection, schedule: Q01DX009 (ip), vehicle: saline with Tween-80

Measured: T/C

Cc1ccc(/C=N/N2C(=O)CSC2=S)cc1
inactive: [1] 102 % of control | [2] 97 % of control

O=C(CC(=O)c1ccccc1)CC(=O)c1ccccc1
inactive: [3] 98 % of control | [4] 100 % of control | endpoint: mean survival time, dose: 400.0 mg/kg/injection, schedule: Q01DX009 (ip), vehicle: saline with Tween-80 102 % of control

OCCNCc1ccc(OCc2ccccc2)c(OCc2ccccc2)c1
inactive: endpoint: median survival time, dose: 50.0 mg/kg/injection, schedule: Q04DX003 (ip), vehicle: saline with Tween-80 90 % of control | endpoint: median survival time, dose: 100.0 mg/kg/injection, schedule: Q04DX003 (ip), vehicle: saline with Tween-80 90 % of control

CC(C)C(C)/C=C\C(C)C1CCC2C3=CC=C4CC(OC(=O)c5ccccc5)CCC4(C)C3=CCC21C (configuration not stated)
inactive: [5] 93 % of control | [6] 110 % of control | [7] 96 % of control

Cc1cc2nc3c4ccccc4n(C)c3nc2cc1C
inactive: endpoint: mean survival time, dose: 50.0 mg/kg/injection, schedule: Q01DX009 (sc), vehicle: Klucel (hydroxypropylcellulose) (HPC) 101 % of control | endpoint: mean survival time, dose: 100.0 mg/kg/injection, schedule: Q01DX009 (sc), vehicle: Klucel (hydroxypropylcellulose) (HPC) 104 % of control | endpoint: mean survival time, dose: 200.0 mg/kg/injection, schedule: Q01DX009 (sc), vehicle: Klucel (hydroxypropylcellulose) (HPC) 104 % of control

CCC(CC)(NC(=O)CN)C(=O)O (H-Gly-[Deg]-OH)
inactive: endpoint: mean survival time, dose: 100.0 mg/kg/injection, schedule: Q04DX002 (ip), vehicle: saline with Tween-80 96 % of control | endpoint: mean survival time, dose: 200.0 mg/kg/injection, schedule: Q04DX002 (ip), vehicle: saline with Tween-80 104 % of control | endpoint: mean survival time, dose: 400.0 mg/kg/injection, schedule: Q04DX002 (ip), vehicle: saline with Tween-80 96 % of control

CCOC(=O)c1cc2ccccc2oc1=O
inactive: [8] 100 % of control | [9] 97 % of control | [3] 109 % of control

CC1C(OC(=O)CCl)CCC2C1(C)CCC1C2(C)CCC2(C)C3CC(C)(C)CCC3(C)CCC12C (configuration not stated)
inactive: endpoint: mean survival time, dose: 100.0 mg/kg/injection, schedule: Q01DX001 (ip), vehicle: saline 97 % of control | endpoint: mean survival time, dose: 200.0 mg/kg/injection, schedule: Q01DX001 (ip), vehicle: saline 97 % of control | endpoint: mean survival time, dose: 400.0 mg/kg/injection, schedule: Q01DX001 (ip), vehicle: saline 97 % of control

O=C(O)CC1(CC(=O)O)CCCCC1
inactive: [9] 98 % of control | [3] 94 % of control | endpoint: mean survival time, dose: 100.0 mg/kg/injection, schedule: Q04DX003 (ip), vehicle: saline with Tween-80 91 % of control | [4] 100 % of control | endpoint: mean survival time, dose: 200.0 mg/kg/injection, schedule: Q04DX003 (ip), vehicle: saline with Tween-80 93 % of control

C(=N\Nc1nc2ccccc2o1)/c1ccncc1
inactive: endpoint: mean survival time, dose: 100.0 mg/kg/injection, schedule: Q04DX003 (ip), vehicle: Klucel (hydroxypropylcellulose) (HPC) 103 % of control | endpoint: mean survival time, dose: 200.0 mg/kg/injection, schedule: Q04DX003 (ip), vehicle: Klucel (hydroxypropylcellulose) (HPC) 95 % of control | endpoint: mean survival time, dose: 400.0 mg/kg/injection, schedule: Q04DX003 (ip), vehicle: Klucel (hydroxypropylcellulose) (HPC) 101 % of control

Cc1ccc(S(=O)(=O)OCC2C(COS(=O)(=O)c3ccc(C)cc3)C3CCC2C2C3C3C2C2(C)C(=O)C3(C)C(c3ccccc3)=C2c2ccccc2)cc1 (configuration not stated)
inactive: endpoint: mean survival time, dose: 100.0 mg/kg/injection, schedule: Q04DX002 (ip), vehicle: other 102 % of control | endpoint: mean survival time, dose: 200.0 mg/kg/injection, schedule: Q04DX002 (ip), vehicle: other 102 % of control | endpoint: mean survival time, dose: 400.0 mg/kg/injection, schedule: Q04DX002 (ip), vehicle: other 111 % of control

CCOC(=O)c1ccc(N/C(C)=C/C(=O)OC)cc1
inactive: endpoint: mean survival time, dose: 75.0 mg/kg/injection, schedule: Q04DX003 (ip), vehicle: saline 94 % of control | endpoint: mean survival time, dose: 150.0 mg/kg/injection, schedule: Q04DX003 (ip), vehicle: saline 91 % of control

CC1(C2CC(=O)c3c(O)ccc(O)c3C2)OCCO1 (configuration not stated)
inactive: endpoint: mean survival time, dose: 25.0 mg/kg/injection, schedule: Q01DX009 (ip), vehicle: Klucel (hydroxypropylcellulose) (HPC) 104 % of control | [5] 109 % of control | [6] 95 % of control | [7] 98 % of control | endpoint: mean survival time, dose: 400.0 mg/kg/injection, schedule: Q01DX009 (ip), vehicle: Klucel (hydroxypropylcellulose) (HPC) 102 % of control

COC12C(COC(=O)NCCO)C3=C(C(=O)C(C)=C(N)C3=O)N1CC1NC12 (configuration not stated)
inactive: endpoint: mean survival time, dose: 1.56 mg/kg/injection, schedule: Q01DX009 (ip), vehicle: Klucel (hydroxypropylcellulose) (HPC) 112 % of control | endpoint: mean survival time, dose: 3.12 mg/kg/injection, schedule: Q01DX009 (ip), vehicle: Klucel (hydroxypropylcellulose) (HPC) 114 % of control and 106 % of control | endpoint: mean survival time, dose: 6.25 mg/kg/injection, schedule: Q01DX009 (ip), vehicle: Klucel (hydroxypropylcellulose) (HPC) 115 % of control and 120 % of control | endpoint: mean survival time, dose: 12.5 mg/kg/injection, schedule: Q01DX009 (ip), vehicle: Klucel (hydroxypropylcellulose) (HPC) 115 % of control | [5] 114 % of control | endpoint: mean survival time, dose: 222.0 mg/kg/injection, schedule: Q01DX001 (ip), vehicle: carboxymethylcellulose (CMC) 89 % of control

COc1ccccc1C=NC(C)(C)CO
inactive: [1] 102 % of control | [2] 97 % of control | endpoint: mean survival time, dose: 300.0 mg/kg/injection, schedule: Q01DX001 (ip), vehicle: other 97 % of control

O=C(O)c1cccc([N+](=O)[O-])c1C(=O)c1ccccc1
inactive: [3] 107 % of control | [4] 102 % of control

CCCC(CCC)=NN=C(CCC)CCC
inactive: endpoint: mean survival time, dose: 25.0 mg/kg/injection, schedule: Q01DX005 (ip), vehicle: saline 97 % of control | [8] 95 % of control | endpoint: mean survival time, dose: 50.0 mg/kg/injection, schedule: Q01DX005 (ip), vehicle: saline 97 % of control | [9] 106 % of control | endpoint: mean survival time, dose: 50.0 mg/kg/injection, schedule: Q04DX002 (ip), vehicle: saline + alcohol 95 % of control | endpoint: mean survival time, dose: 100.0 mg/kg/injection, schedule: Q01DX005 (ip), vehicle: saline 105 % of control | [3] 91 % of control | endpoint: mean survival time, dose: 100.0 mg/kg/injection, schedule: Q04DX002 (ip), vehicle: saline + alcohol 92 % of control | endpoint: mean survival time, dose: 200.0 mg/kg/injection, schedule: Q01DX005 (ip), vehicle: saline 97 % of control | [4] 93 % of control | endpoint: mean survival time, dose: 200.0 mg/kg/injection, schedule: Q04DX002 (ip), vehicle: saline + alcohol 88 % of control

CC(C)=CCC/C(C)=C/COc1ccc(/C=C2/C(=O)N(O)[C@@H](C)C(=O)N2O)cc1
inactive: endpoint: mean survival time, dose: 1.56 mg/kg/injection, schedule: Q01DX009 (ip), vehicle: saline with Tween-80 101 % of control | endpoint: mean survival time, dose: 3.12 mg/kg/injection, schedule: Q01DX009 (ip), vehicle: saline with Tween-80 96 % of control | endpoint: mean survival time, dose: 3.12 mg/kg/injection, schedule: Q01DX009 (ip), vehicle: saline 94 % of control | endpoint: mean survival time, dose: 6.25 mg/kg/injection, schedule: Q01DX009 (ip), vehicle: saline with Tween-80 101 % of control | endpoint: mean survival time, dose: 6.25 mg/kg/injection, schedule: Q01DX009 (ip), vehicle: saline 96 % of control | endpoint: mean survival time, dose: 12.5 mg/kg/injection, schedule: Q01DX009 (ip), vehicle: saline with Tween-80 101 % of control | endpoint: mean survival time, dose: 12.5 mg/kg/injection, schedule: Q01DX009 (ip), vehicle: saline 100 % of control | [8] 106 % of control | endpoint: mean survival time, dose: 25.0 mg/kg/injection, schedule: Q01DX009 (ip), vehicle: saline 108 % of control | [9] 112 % of control | endpoint: mean survival time, dose: 50.0 mg/kg/injection, schedule: Q01DX009 (ip), vehicle: saline 100 % of control | endpoint: mean survival time, dose: 100.0 mg/kg/injection, schedule: Q01DX009 (ip), vehicle: saline 100 % of control

CN1C2CCC1CC(O)C2 (configuration not stated)
inactive: endpoint: mean survival time, dose: 100.0 mg/kg/injection, schedule: Q04DX002 (ip), vehicle: saline 109 % of control | endpoint: mean survival time, dose: 200.0 mg/kg/injection, schedule: Q04DX002 (ip), vehicle: saline 109 % of control | endpoint: mean survival time, dose: 400.0 mg/kg/injection, schedule: Q04DX002 (ip), vehicle: saline 97 % of control
